Data set [1] relates to Adjuvant-Induced Arthritis (AIA). In words: Adjuvant-Induced Arthritis (AIA) in Lewis rats. As to conditions: 35 days and 45 days treatment sections.
The test system of data set [2] is HBV. In words: HBV mouse hydrodynamic injection (HDI) model. Type of data set: in vivo, BALB/c mice. As to conditions: therapeutically-treated mice, from day 3 post HDI to the end. An excerpt:
Hydrodynamic injection (HDI) is an in vivo gene delivery technology. It refers to transiently transfect the mouse liver cells with a foreign gene via tail vein injection of a large volume saline containing plasmid within a few seconds. Taking the advantage of the liver-targeting manner of hydrodynamic injection, a single hydrodynamic injection of a replication-competent HBV DNA, could result in HBV replication in mouse liver shortly. This HBV hydrodynamic injection model on immunocompetent mice is a convenient and reproducible animal model for anti-HBV compound screening in vivo, which has been successfully established in WuXi ID department.
• 3.1 Hydrodynamic injection and compound administration • 3.1.1. From day −7 to day 0, all 5 mice in group 4 were administrated i.p./i.v. with test article daily for 8 days according to Table 14.2. • 3.1.2. On day 0, all groups of mice were hydrodynamicly injected via tail vein with pcDNA3.1/HBV plasmid DNA in a volume of normal saline equal to 8% of a mouse body weight. […]
• 3.2.1.1 Isolate DNA from 50 μl plasma using QIAamp 96 DNA Blood Kit. […] Run qPCR for HBV DNA quantification. a) Dilute HBV plasmid standard by 10-fold from 10^7 copies/μl to 10 copies/μl. b) Prepare qPCR mix as shown below. […]
HBV DNA quantity=DNA determined by HBV primer-DNA determined by plasmid primer. […]

Data set [3] deals with HBV in HepG2.2.15. Kind of data set: Anti-HBV potency in stable HBV cell line (HBV DNA real time PCR). The data set is classed as cell-based. As to conditions: Hepatitis B virus. On the procedure:
Lamivudine is diluted with 3-fold for 9 concentrations.
i) Cell culture medium: RPM 1640-4% FBS-1% Pen/Strep-1% Glutamine ii) HepG2.2.15 cell culture: Grow the cells in T75 flask. Incubated at 37° C., 95% humidity, 5% CO2.
f) Refresh protein-containing medium on day 3 of drug treatment. g) Collect culture media from the HepG2.2.15 plates on day 6 followed by HBV DNA extraction using QIAamp 96 DNA Blood Kit (QIAGEN #51161). 2) Real time PCR for HBV DNA quantification. a) Dilute HBV plasmid standard by 10-fold from 0.1 ng/ul to 0.000001 ng/ul. b) Prepare realtime PCR mix as shown blow.
c) Add 15 ul/well PCR mix to 96-well optical reaction plates. d) Add 10 ul of the diluted plasmid standard to C12-H12. […]
3) Data analysis: A standard curve is generated by plotting Ct value vs. the amount of the HBV plasmid standard, and the quantity of each sample is estimated based on the Ct value projection on the standard curve; percent of HBV inhibition by protein or compound is calculated using the following equation: % Inh.=[1−(HBV quantity of sample−HBV quantity of HepG2 control)/(HBV quantity of 0% Inhibition control−HBV quantity of HepG2 control)]*100.

The test system of data set [4] is HCV 1b replicon. Kind of data set: microbe, parasite or virus in culture. Type of data set: cell-based. As to conditions: Hepatitis C virus, read-out: EC50 (uM) 1b.
Protocol: (§1) The cells are counted using hemocytometer.
(§2) Incubate plate at 5% CO2, 37° C. for 4 hours.
(§3) Dose-response curves are plotted using Prism.
Data set [5] deals with HCV 2a replicon. Kind of data set: microbe, parasite or virus in culture. Type of data set: cell-based. As to conditions: Hepatitis C virus, read-out: EC50 (uM) 2a.
Protocol: as §1, §2, §3
Data set [6] has as its system HCV 1a replicon. Kind of data set: microbe, parasite or virus in culture. The data set is classed as cell-based. As to conditions: Hepatitis C virus, read-out: EC50 (uM) 1a.
Protocol: as §1, §2, §3
The subject of data set [7] is atherosclerotic model. As to conditions: for Animal Wounded, Total: n = 10, reason: fighting each other; for Animal Dead, Total: n = 10 ApoE ko mice, high fat diet. The source says: 10 ApoE ko mice were fed with regular chow diet and used as negative control group. 50 ApoE ko mice were fed with high fat diet (35% kcal fat, 1% cholesterol) for 8 weeks, and then the plasma samples were collected for lipid profile measurement before the treatment. 50 ApoE ko mice were assigned into 5 groups based on the fasting overnight plasma TC and HDL level.
• 23 Dec. 2011: 60 ApoE mice arrived at chempartner and were housed in the animal facility in the building #3 for the acclimation. • 6 Jan. 2012: Measured the body weight for each mouse. 50 mice were fed with high fat diet and 10 mice were fed with normal chow diet. • 2 Mar. 2012: All mice were fasted over night and plasma samples (about 300 ul whole blood) were collected for lipid profile measurement before treatment with RAAS antibody. • 19 Mar. 2012 to 6 Apr. […] 2012: All mice were fasted over night and plasma sample for each mouse (about 300 ul whole blood) was collected for lipid profile measurement after 16 weeks treatment. Blood glucose was also measured for each mouse. • 9 Jul. 2012: The study was terminated after 16 weeks treatment. Measure BW, sacrificed each mouse, dissected the aorta, heart, liver and kidney and fixed them in 4% PFA.
Antibody products were administrated by intraperitoneal injection every two days (Monday, Wednesday, and Friday). and the positive compound was administered by p.o every day.
The body weight was weighed weekly during the period of treatment.
The fasting overnight blood glucose was measured at the end of study by Roche glucometer.
About 300 ul of blood sample was collected from the orbital vein for each mouse and centrifuged at 7000 rpm for 5 min at 4° C. and the plasma lipid profile was measured by Roche Modular automatic biochemistry analyzer in DaAn Medical Laboratory
After RAAS antibody products treatment for 16 weeks, all mice were sacrificed. Measured body weight and collected blood sample for each mouse. Weighed liver weight and saved a tiny piece of liver into 4% paraformaldehyde (PFA) fixation solution for further analysis. At same time, take the photos with heart, lung, aortas and two kidneys.
1. Sacrificed the mice and dissected the heart, aorta, and arteries under dissecting microscope.
4. Stain with freshly prepared Oil Red O working solution 10 min. • 1). Oil red O stock stain: 0.5% powder in isopropanol • 2). Working solution: dilute with distilled water (3:2) and filter with membrane (0.22 um)
Scanning the glasses slides with the Aperio ScanScope system and analyze with the image proplus software to measure the area of atherosclerotic plaque lession. The results were expressed as the percentage of the total aortic surface area covered by lesions. The operation procedure of software was briefly described as follow: Converted the sys version photos into JPG version, then calibrated it and subsequently selected the red regions and then calculate the total area automatically by image proplus software.
The results were expressed as the Mean±SEM and statistically evaluated by student's t-test.
Area Percent (%)=Sum Area of Atherosclerotic Plaque (Mm^2)/Whole Area of Vascular Inner Wall (Mm^2)

Data set [8] relates to lung cancer cells. In words: KH mediums vs lung cancer cells, in-vitro well study. The data set is classed as cell-based. An excerpt: From which other companies in China have produced Human Albumin for use in the cell growth instead of feta bovine serum and also
The above have been discovered in In-Vitro well study but not tested for CCK8 to measure the degree of inhibition of the cancer cells by each of the mediums. Such a study has been performed on Oct. 4, 2012 it is amazing to find out that all series of medium from KH100, KH200 and KH300 have different level of effect on the inhibition of the lung cancer, leukemia, gastric and breast both solid tumors and blood cancer have been tested.

Like-named read-outs stand apart in the source and are kept apart here.

With `C[C@@H]1C[C@H]2[C@@H]3CCC4=CC(=O)C=C[C@]4(C)[C@@]3(F)[C@@H](O)C[C@]2(C)[C@@]1(O)C(=O)CO` [Dex, Dexamethasone], in data set [1], the “body weight compared with saline group” value is on record as “reduction of body weight”.

As to `C=C1[C@H](CO)[C@@H](O)C[C@@H]1n1cnc2c(=O)[nH]c(N)nc21` [ETV, Entecavir], the “HBV replication in plasma” value in data set [2] is on record as “significant inhibition”.

In data set [3], `Nc1ccn([C@@H]2CS[C@H](CO)O2)c(=O)n1` [Lamivudine] displayed an EC50 of 0.0062 µM.

For the compound `NC(=O)c1ncn([C@@H]2O[C@H](CO)[C@@H](O)[C@H]2O)n1` [Ribavirin], the EC50 in data set [4] worked out at 39 µM; in data set [5], 37.4 µM; in data set [6] it was 57.6 µM.

As to APOA 1, the “Animal Wounded, Total” value in data set [7] (high dose 0.1 ml i.p.) is 1; in data set [7] (low dose), 3; in data set [7] (mid dose 0.075 ml i.p.), 1. Further, the “Animal Dead, Total” value in data set [7] (high dose 0.1 ml i.p., reason: Fighting) came to 1; in data set [7] (low dose, reasons: gastrorrhagia, urinary tract infection (2)) it was 3; in data set [7] (mid dose 0.075 ml i.p., reason: Fighting), 1.

In the case of “bovine human albumin: animal protein product”, the “effect on lung cancer cells” value in data set [8] was “inhibited lung cancer cell growth”.

For orientation: EC50 means the midpoint of the concentration-response curve.

The record behind these values is US20140086881A1, “GOOD HEALTHY CELLS FOUND IN PROTEINS, THEIR APPLICATIONS, AND PROCESS OF MAKING A MEDIUM TO HARVEST THE CELLS” (priority 2012, published 2014).
